The record followed here is patent US20110086875A1, “Powdered Medicament for Nasal Delivery of Ascorbic Acid for Reducing Apomorphine Induced Toxicity to Ciliated Tissue” (BRITANNIA PHARMACEUTICALS LIMITED, priority 2007, published 2011).

The data set relates to ciliated tissue taken from the trachea of a chick embryo. Put plainly: Cilia beat frequency (CBF) model. It is filed as cell-based. From the text:
By “toxic” herein is meant that the active agent has an adverse effect on the cilia beat frequency of ciliated tissue taken from the trachea of a chick embryo according to the model that is well known in the art (“The Effect of Nasal Drug Formulations on Ciliary Beating in Vitro,” Romeijn, et al.; Int. J. Pharm., 135; 1996: 137-145; “Classification of Cilio-Inhibiting Effects of Nasal Drugs,” Merkus, et al., Laryngoscope, 111(4); April 2001: 595-602). By “ameliorating said toxicity” herein is meant that the adverse effect of the active agent on the cilia beat frequency is lessened as a result of the inclusion in the medicament of ascorbic acid for co-administration with said active agent. […]
The cilia beat frequency (CBF) model is a recognised technique to investigate the relative toxicity of substances applied in solution to a section of ciliated tissue taken from the trachea of a chick embryo (Romeijn, et al., 1996, Merkus, et al., 2001). […] The tissue is then transferred to a well containing 1.0 ml of test solution and the impact on CBF assessed. Further, the reversibility of any effects can be measured by washing the tissue in Locke-Ringer solution 15 minute post administration and evaluating the recovery of CBF.

`CN1CCc2cccc3c2[C@H]1Cc1ccc(O)c(O)c1-3` [apomorphine]: the “reversibility of toxic effect on CBF after washing” value is recorded as “irreversible”.

For the molecule `O=C1O[C@H]([C@@H](O)CO)C(O)=C1O` [ascorbic acid], the “effect of adding ascorbic acid on the apomorphine-induced arrest of cilia beat movement” value (1% wt. ascorbic acid added to 1% apomorphine in MLR solution, single administration, FIG. 1) is listed as “ameliorated significantly”.
